# Tested on: cannabis high (psychotropic effects of THC)
# Test: real-life, non-clinical trials by volunteers: oral Olivetol softgel taken at peak of cannabis high, self-reported effects
# Assay type: in vivo, human
# Conditions: consumed before or after THC; general statement of the inventors
# Experimental: A number of real-life, non-clinical trials have been performed by volunteers, to test the effects of the consumption of embodiments of the present invention, the conditions and results of which are described as follows. All tests were performed in “real life,” rather than clinical conditions. Various methods of consumption of cannabis were used, such as consumption of edibles, inhalation of cannabis smoke, or inhalation of vapor, depending upon the volunteer's preference. Some subjects reported their pre-consumption mood, pain level, etc., as well as their level of experience with consumption of cannabis. After sufficient exposure to cannabis, each subject indicated when their euphoria or “high” had reached a high level or a peak. Then, the subject took one or more oral doses of an embodiment of the present invention, containing 30 mg of Olivetol combined with edible oil in a “softgel” pill. A timer was started and the subject then reported when they felt an awareness of a decrease or reduction in their euphoria or other cannabis effects, as well as their subjective feelings, mood, pain level or other observations, until they self-reported that their cannabis effects were concluded. […]
structure (smiles),measurement,value
"CCCCCc1cc(O)cc(O)c1 [Olivetol, 5-pentylresorcinol]",effect of Olivetol consumption on psychotropic effects of THC,significantly reduce the psychotropic effects of THC ingestion

# From US10265277B2, “Composition of Olivetol and method of use to reduce or inhibit the effects of tetrahydrocannabinol in the human body” (Undoo, LLC, priority 2015, dated 2019)
